In US6063777A, “Iminochlorinaspartic acid derivatives” (Wyeth Lederle Japan, Ltd., priority 1996, dated 2000):

How the values were obtained:
[1] = Laser irradiation to extirpated organ: distribution (cancer/organ ratio) by surface fluorescence, N2-pulsed laser, mice bearing Colon 26; assay type: in vivo, CDF1 mice; settings: mouse, tumor/plasma, sodium salt, 10 mg/kg intravenous
Description: (§1) CDF1 mice (5 per group) were implanted with tumor tissues of colon cancer Colon 26. Two weeks after the implantation, the mice were given an intravenous injection of sodium salt of each of compounds (I) and (II) (10 mg/kg for each mouse) which had been diluted with a distilled water for injection. At 3 hrs, 6 hrs and 12 hrs after the injection, the blood samples were collected and the organs bearing the tumor tissue were extirpated, irradiated with N2 -pulsed laser (N2, wavelength: 337 nm, 2 ns), and the excited fluorescent spectrum was measured. The wavelengths in the range of 600 to 900 nm were examined based on the peak wavelength of NADH at 470 nm (determination of the distribution of the test compound in the organ by the surface fluorescence method using N2 -pulsed laser spectrophotometry). That is, cancer/organ (or plasma) ratio was determined by calculating the peak wavelength in the range of 600 to 900 nm when the peak wavelength at 470 nm was considered as the basic value, 1.

colon cancer Colon 26 = experiment: as above; assay type: in vivo, CDF1 mice; settings: sodium salt, 10 mg/kg intravenous
Description: as §1

HeLa cells = experiment: HeLa cell survival after diode laser (670 nm) irradiation, MTS-PMS reagent; assay type: cell-based; settings: Homo sapiens, HeLa, light or radiation study, sodium salt, 6 hrs, 670 nm, 25 J/cm^2, read-out: Cell Survival Rate
Description: HeLa cells were seeded in wells of a 96-well plate each containing 100 μl of a culture medium at 5×10^3 /well, and incubated at 37° C. overnight. In each well, the culture medium was removed, and 100 μl of a solution containing sodium salt of either of compound (I) or compound (II) in concentrations of 0, 6.25, 12.5, 25, 50 and 100 μM/ml was added (3 wells for each group of the concentrations) and incubated at 37° C. at for 6 hrs. Each well was washed with PBS(-) once, and then 100 μl of a fresh medium was added. The wells were irradiated using a diode laser (670 nm) under the conditions of 0.44W of laser intensity, 0.785 cm^2 of irradiation area (diameter: 1 cm) and 25 J/cm^2 of laser energy. After the irradiation, each well was incubated at 37° C. overnight and washed with PBS(-) once, then 100 μl of a fresh medium was added. To each well was added 20 μl of MTS-PMS reagent, and the well was further incubated at 37° C. for 2-4 hrs. The absorbance of each well at 492 nm was measured using a microplate reader. The cell survival rate at each of the above mentioned concentrations of the test compound was calculated considering the value for the well of 0 μM/ml of the test compound as 100%.

Structure (SMILES): C=Cc1c(C)c2cc3nc(cc4[nH]c(cc5nc(cc1[nH]2)C(C)(O)C5=CC=NO)c(C)c4CCC(=O)NC(CC(=O)O)C(=O)O)C(CCC(=O)NC(CC(=O)O)C(=O)O)=C3C (centres unmarked) [Compound (II), reference compound]
- Kp at 3 h ([1]; 3 hr): 0.3
- Kp at 6 h ([1]; 6 hr): 1.12
- Kp at 12 h ([1]; 12 hr): 0.66
- Cancer/Brain ratio (colon cancer Colon 26; 3 hr): 10.10
- Cancer/Kidney ratio (colon cancer Colon 26; 3 hr): 0.67
- Cancer/Liver ratio (colon cancer Colon 26; 3 hr): 0.62
- Cancer/Lung ratio (colon cancer Colon 26; 3 hr): 2.35
- Cancer/Muscle ratio (colon cancer Colon 26; 3 hr): 1.23
- Cancer/Brain ratio (colon cancer Colon 26; 6 hr): 16.0
- Cancer/Kidney ratio (colon cancer Colon 26; 6 hr): 0.59
- Cancer/Liver ratio (colon cancer Colon 26; 6 hr): 1.01
- Cancer/Lung ratio (colon cancer Colon 26; 6 hr): 4.59
- Cancer/Muscle ratio (colon cancer Colon 26; 6 hr): 1.26
- Cancer/Brain ratio (colon cancer Colon 26; 12 hr): 15.0
- Cancer/Kidney ratio (colon cancer Colon 26; 12 hr): 0.95
- Cancer/Liver ratio (colon cancer Colon 26; 12 hr): 1.11
- Cancer/Lung ratio (colon cancer Colon 26; 12 hr): 2.68
- Cancer/Muscle ratio (colon cancer Colon 26; 12 hr): 2.95
- viability at 6.25 µM (HeLa cells; 6.25 μM): 81%
- viability at 12.5 µM (HeLa cells; 12.5 μM): 54%
- viability at 25 µM (HeLa cells; 25 μM): 48%
- viability at 50 µM (HeLa cells; 50 μM): 35%
- viability at 100 µM (HeLa cells; 100 μM): 19%
